Key:
Format in all cases: in vivo
Nilaparvata lugens = test: Insecticidal activity against Nilaparvata lugens (Potter spray tower); details: 24 h, 400 μg/mL, 3rd instar nymphae, 1 day after treatment, read-out: Mortality rate (%) N. lugens
Excerpt: (§1) Preparation of test agent. Dissolve accurately weighed tested compound in DMF to prepare 1% mother liquor, and then dilute it with distilled water containing 0.1% Tween-80 to corresponding concentrations for later use.
Insecticidal activity against Nilaparvata lugens ([Ghareeb et al., 2021]). The seedlings with two leaves and one heart were placed in a Petri dish with a bottom diameter of 3 cm and covered with white sand. After the 3rd instar nymphae of N. lugens were stunned by CO2, about 15 nymphae were received in each dish, and then 2.5 ml of the tested agent was sprayed with Potter spray tower. The mortality of N. lugens was investigated 1 day after the treatment. Each treatment was repeated three times, and DMF without the tested compound was used as a blank control.
(§2) The insecticidal activities of the test compounds against the abovementioned five insects were calculated by the following formula: P1=(K/N)×100, (1) P2=(Pt−P0)/(1−P0)×100, (2) where P1 is the mortality rate; K is the dead insect number; N is the total number of experimental insects; P2 is the corrected mortality rate; Pt is the mortality rate of treatment; P0 is the mortality rate of CK. If the mortality rate of CK is less than 5%, without the required correction, and if the mortality rate of CK is between 5 and 20%, P2 should be calculated according to formula II.

Chilo suppressalis = test: Insecticidal activity against Chilo suppressalis (soaking method); details: 96 h, 400 μg/mL, 3rd instar larvae, counted 4 days later, read-out: Mortality rate (%) C. suppressalis
Excerpt: as §1
Insecticidal activity against Chilo suppressalis ([Huang et al., 2022]). The soaking method was adopted. The Zizania latifolia slices were soaked in a tested solution for 10 s, then taken out, and placed in a plastic Petri dish with filter paper to naturally dry in the shade. […] The result was counted 4 days later, and the no-response insect body when it was lightly touched with a brush was regarded as dead. Each treatment was repeated three times, and DMF without the tested compound was used as a blank control.
as §2

Helicoverpa armigera = test: Insecticidal activity against Helicoverpa armigera (soaking method); details: Helicoverpa armigera, 48 h; 400 μg/mL; 2nd instar larvae; counted 2 days later; read-out: Mortality rate (%) H. armigera
Excerpt: as §1
Insecticidal activity against Helicoverpa armigera. The soaking method was adopted ([Yang et al., 2022]). After soaking a proper amount of corn leaves for 10 s, they were placed in a plastic Petri dish with filter paper and dried naturally in the shade. Ten larvae of the 2nd instar H. armigera were attached to each dish and placed in an observation room at 26°C with light (16/8 h). The result was counted 2 days later, and the no-response insect body when it was lightly touched with a brush was regarded as dead. Each treatment was repeated 3 times, and DMF without the tested compound was used as a blank control.
as §2

Plutella xylostella = test: Insecticidal activity against Plutella xylostella (soaking method); details: Plutella xylostella, 48 h, 2nd instar larvae, counted 2 days later, read-out: Mortality rate (%) P. xylostella; for mortality at 400 µg/mL: 400 μg/mL
Excerpt: as §1
Insecticidal activity against Plutella xylostella ([Yang et al., 2021]). The soaking method was adopted. After soaking a proper amount of radish leaves for 10 s, it was placed in a plastic Petri dish with filter paper and dried naturally in the shade. Each dish was inoculated with 10 2nd instar P. xylostella larvae and placed in an observation room at 22°C with light (16/8 h). The result was counted 2 days later, and the no-response insect body when it was lightly touched with a brush was regarded as dead. Each treatment was repeated three times, and DMF without the tested compound was used as a blank control.
as §2

Aphis craccivora = test: Insecticidal activity against Aphis craccivora (Potter spray tower); details: 400 μg/mL, counted 24 h later, read-out: Mortality rate (%) A. craccivora
Procedure: as §1
Insecticidal activity against Aphis craccivora ([Liu et al., 2022]). About 30 nymphs of alfalfa aphid were placed on a horsebean leaf dish, and then 2.5 ml of the tested agent was sprayed with Potter spray tower. After treatment, they were cultured in an observation room at 20–22°C. The result was counted 24 h later, and the no-response insect body when it was lightly touched with tweezers was regarded as dead. Each treatment was repeated three times, and DMF without the tested compound was used as a blank control.
as §2

COCC(=O)/N=c1\ccccn1Cc1cnn(-c2cccc(Cl)c2)c1C(F)F [Compound B6, (E)-N-(1-((1-(3-chlorophenyl)-5-(difluoromethyl)-1H-pyrazol-4-yl)methyl)pyridin-2(1H)-ylidene)-2-methoxyacetamide]
mortality at 400 µg/mL (Nilaparvata lugens): 0%
mortality at 400 µg/mL (Chilo suppressalis): 0%
mortality at 400 µg/mL (Helicoverpa armigera): 0%
mortality at 25 µg/mL (Plutella xylostella; 25 μg/mL): 0%
mortality at 100 µg/mL (Plutella xylostella; 100 μg/mL): 83.3%
mortality at 400 µg/mL (Plutella xylostella): 100%
mortality at 400 µg/mL (Aphis craccivora): 0%

COCC(=O)/N=c1\ccccn1Cc1cnn(-c2cccc(F)c2)c1C(F)F [Compound B7, (E)-N-(1-((5-(difluoromethyl)-1-(3-fluorophenyl)-1H-pyrazol-4-yl)methyl)pyridin-2(1H)-ylidene)-2-methoxyacetamide]
mortality at 400 µg/mL (Nilaparvata lugens): 0%
mortality at 400 µg/mL (Chilo suppressalis): 0%
mortality at 400 µg/mL (Helicoverpa armigera): 0%
mortality at 400 µg/mL (Plutella xylostella): 66.7%
mortality at 400 µg/mL (Aphis craccivora): 0%

COCC(=O)/N=c1\ccccn1Cc1cnn(-c2ccc(F)cc2)c1C(F)F [Compound B8, (E)-N-(1-((5-(difluoromethyl)-1-(4-fluorophenyl)-1H-pyrazol-4-yl)methyl)pyridin-2(1H)-ylidene)-2-methoxyacetamide]
mortality at 400 µg/mL (Nilaparvata lugens): 0%
mortality at 400 µg/mL (Chilo suppressalis): 0%
mortality at 400 µg/mL (Helicoverpa armigera): 0%
mortality at 400 µg/mL (Plutella xylostella): 56.7%
mortality at 400 µg/mL (Aphis craccivora): 0%

O=C(/N=c1\ccccn1Cc1cnn(-c2ccccc2)c1C(F)(F)F)C(F)(F)C(F)(F)F [Compound C1, (E)-2,2,3,3,3-pentafluoro-N-(1-((1-phenyl-5-(trifluoromethyl)-1H-pyrazol-4-yl)methyl)pyridin-2(1H)-ylidene)propanamide]
mortality at 400 µg/mL (Nilaparvata lugens): 0%
mortality at 400 µg/mL (Chilo suppressalis): 0%
mortality at 400 µg/mL (Helicoverpa armigera): 0%
mortality at 400 µg/mL (Plutella xylostella): 0%
mortality at 400 µg/mL (Aphis craccivora): 0%

O=C(/N=c1\ccccn1Cc1cnn(-c2ccccc2Cl)c1C(F)(F)F)C(F)(F)C(F)(F)F [Compound C2, (E)-N-(1-((1-(2-chlorophenyl)-5-(trifluoromethyl)-1H-pyrazol-4-yl)methyl)pyridin-2(1H)-ylidene)-2,2,3,3,3-pentafluoropropanamide]
mortality at 400 µg/mL (Nilaparvata lugens): 0%
mortality at 400 µg/mL (Chilo suppressalis): 0%
mortality at 400 µg/mL (Helicoverpa armigera): 0%
mortality at 400 µg/mL (Plutella xylostella): 0%
mortality at 400 µg/mL (Aphis craccivora): 0%

O=C(/N=c1\ccccn1Cc1cnn(-c2cccc(F)c2)c1C(F)(F)F)C(F)(F)C(F)(F)F [Compound C3, (E)-2,2,3,3,3-pentafluoro-N-(1-((1-(3-fluorophenyl)-5-(trifluoromethyl)-1H-pyrazol-4-yl)methyl)pyridin-2(1H)-ylidene)propanamide]
mortality at 400 µg/mL (Nilaparvata lugens): 0%
mortality at 400 µg/mL (Chilo suppressalis): 0%
mortality at 400 µg/mL (Helicoverpa armigera): 0%
mortality at 400 µg/mL (Plutella xylostella): 76.7%
mortality at 400 µg/mL (Aphis craccivora): 0%

O=C(/N=c1\ccccn1Cc1cnn(-c2ccc(Cl)cc2)c1C(F)(F)F)C(F)(F)C(F)(F)F [Compound C4, (E)-N-(1-((1-(4-chlorophenyl)-5-(trifluoromethyl)-1H-pyrazol-4-yl)methyl)pyridin-2(1H)-ylidene)-2,2,3,3,3-pentafluoropropanamide]
mortality at 400 µg/mL (Nilaparvata lugens): 0%
mortality at 400 µg/mL (Chilo suppressalis): 0%
mortality at 400 µg/mL (Helicoverpa armigera): 0%
mortality at 400 µg/mL (Plutella xylostella): 73.3%
mortality at 400 µg/mL (Aphis craccivora): 0%

O=C(/N=c1\ccccn1Cc1cnn(-c2cccc(Cl)c2)c1C(F)F)C(F)(F)C(F)(F)F [Compound C6, (E)-N-(1-((1-(3-chlorophenyl)-5-(difluoromethyl)-1H-pyrazol-4-yl)methyl)pyridin-2(1H)-ylidene)-2,2,3,3,3-pentafluoropropanamide]
mortality at 400 µg/mL (Nilaparvata lugens): 0%
mortality at 400 µg/mL (Chilo suppressalis): 0%
mortality at 400 µg/mL (Helicoverpa armigera): 0%
mortality at 400 µg/mL (Plutella xylostella): 60%
mortality at 400 µg/mL (Aphis craccivora): 0%
